Assay results: US20250188123A1, “PROTEASE INHIBITORS” (Regents of the University of Minnesota, priority 2022, published 2025)
Entries after “also recorded” stand apart in the source; their conditions may differ. Read-outs that look alike come from different tables or passages of the source.

Molecular target: T1, recombinant human caspase-2 (cleavage of tau at D314) (Homo sapiens, UniProt P42575)
T1 construct: human caspase-2 p19 and p12 subunits were cloned as two separate open reading frames in the pCOLADuet-1 vector; made in house; host or cells: E. coli BL21(DE3)
T1 sequence (P42575 170-325 limits assumed): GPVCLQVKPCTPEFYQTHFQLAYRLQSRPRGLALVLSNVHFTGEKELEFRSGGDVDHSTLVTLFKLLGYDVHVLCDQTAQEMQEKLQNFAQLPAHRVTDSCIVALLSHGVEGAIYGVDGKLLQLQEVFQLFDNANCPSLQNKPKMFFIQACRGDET
T1 sequence (P42575 348-452 limits assumed): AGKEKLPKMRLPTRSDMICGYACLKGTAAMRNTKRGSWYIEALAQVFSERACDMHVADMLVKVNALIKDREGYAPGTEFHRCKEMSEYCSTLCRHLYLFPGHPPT
Assay: In vitro caspase-2-catalyzed tau cleavage assay (Δtau314 production, IP/WB)
Format: biochemical
Conditions: for inhibition at 10 µM: read-out: inhibition of Casp2-catalyzed Δtau314 production (tau cleavage at D314)
Protocol: DNA sequences encoding human caspase-2 p19 and p12 subunits were cloned as two separate open reading frames in the pCOLADuet-1 vector (Millipore Sigma, Burlington, MA). The DNA sequence encoding human microtubule-associated protein tau 0N4R isoform was cloned in the pET28a vector (Millipore Sigma). Expression of recombinant human caspase-2 and tau was induced using 150 μM isopropyl-β-D-thiogalactopyranoside (IPTG) (Promega, Madison, WI) in the BL21(DE3) E. coli strain (Millipore Sigma) at room temperature for 16 hours while shaking at 250 rpm. Cells were then harvested via centrifugation at 6,000 g, 4° C. for 15 minutes, followed by lysis via sonication. Proteins were purified using HisPur Ni-NTA resin (Thermo Fisher Scientific, Waltham, MA) followed by HiTrap Chelating HP columns (GE Healthcare Life Sciences, Piscataway, NJ). Proteins were stored in 1× phosphate-buffered saline (pH 7.4) at 10 mg/mL (determined using a BCA assay (Thermo Fisher Scientific)), −80° C. until further use.
Purified recombinant Casp2 (final concentration during pre-incubation: 67 μM) was pre-incubated with various concentrations of inhibitory compounds at 4° C. for 72 h. Pre-treated enzyme was then incubated with purified recombinant tau at a molar ratio of 1:1 in 37° C. water bath, 1× reaction buffer (25 mM 4-(2-hydroxyethyl)-1-piperazineethanesulfonic acid (HEPES), 0.1% (w/v) 3-[(3-cholamidopropyl)dimethylammonio]-1-propanesulfonate (CHAPS), 10 mM dithiothreitol (DTT), pH 7.5) for 7 h. The final volume of each reaction was 100 μL. At the end of the 7-h incubation, 0.1% (v/v) protease inhibitor cocktail (Millipore Sigma) was added to stop the reactions.
Immediately after the reaction was stopped, the 100 μL enzyme-product mixture was diluted in 400 μL IP buffer (50 mM Tris-HCl (pH 7.4) and 150 mM NaCl, containing 0.1 mM phenylmethylsulfonyl fluoride, 0.2 mM 1,10-phenanthroline monohydrate, and protease inhibitor cocktail (Millipore Sigma)), and then incubated with 10 μg of Δtau314-specific monoclonal antibody 4F3 and 50 μL of Protein G Sepharose 4 Fast Flow resin (GE Healthcare) at 4° C. for 14-16 h. Subsequent resin wash and protein elution were performed as described previously (Liu P, et al., Scientific Reportsm 2020, 10, 3869). WB was performed according to a previously published protocol (Liu P, et al., Acta Neuropathologica Communications, 2019; 7, 111).

CC(=O)N[C@H](C(=O)NC(CC(=O)O)C(=O)N[C@H](C(=O)N1CCc2cc(C)ccc2C1C(=O)N[C@H](C=O)CC(=O)O)C(C)C)C(C)C (stereo in doubt) [Compound 30a, (R)-3-((S)-2-acetamido-3-methylbutanamido)-4-(((S)-1-((S)-1-(((S)-1-carboxy-3-oxopropan-2-yl)carbamoyl)-6-methyl-3,4-dihydroisoquinolin-2(1H)-yl)-3-methyl-1-oxobutan-2-yl)amino)-4-oxobutanoic acid, reference compound]
inhibition of Casp2-catalyzed Δtau314 production (tau cleavage at D314) (compound at 10 μM, no-compound control = 100% Δtau314, 10 µM): no inhibition; also recorded: did not inhibit

Cc1ccc2c(c1)CCN(C(=O)[C@@H](NC(=O)[C@H](CCCC(=O)O)NC(=O)C1Cc3ccccc3N1)C(C)C)[C@@H]2C(=O)N[C@H](C#N)CC(=O)O (stereo partly drawn) [Compound 1, (8)-6-(((S)-1-((8)-1-(((S)-2-carboxy-1-cyanoethyl)carbamoyl)-6-methyl-3,4-dihydroisoquinolin-2(1H)-yl)-3-methyl-1-oxobutan-2-yl)amino)-5-((S)-indoline-2-carboxamido)-6-oxohexanoic acid]
IC50: 2.02 ± 0.19 µM
inhibition at 10 µM: 96%

CC(=O)N[C@H](C(=O)N[C@@H](CC(=O)O)C(=O)N[C@H](C(=O)N1CCc2cc(C)ccc2[C@H]1C(=O)N[C@H](C=O)CC(=O)O)C(C)C)C(C)C [Compound 30b, (S)-3-((S)-2-acetamido-3-methylbutanamido)-4-(((S)-1-((S)-1-(((S)-1-carboxy-3-oxopropan-2-yl)carbamoyl)-6-methyl-3,4-dihydroisoquinolin-2(1H)-yl)-3-methyl-1-oxobutan-2-yl)amino)-4-oxobutanoic acid, reference compound]
inhibition at 10 µM (compound at 10 μM, no-compound control = 100% Δtau314): 68%
